Patent US20260062422A1 (Halda Therapeutics OpCo, Inc., priority 2022, published 2026)

tested on: T47D cells; experiment: Cellular growth inhibition assay for T47D cells, CellTiter-Glo; format: cell-based, human; details: 72 hours treatment, CellTiter-Glo 2.0 cell viability
Description: T47D cells were purchased from American Type Cell Culture (ATCC Cat #HTB-133) and then seeded on poly-D-lysine coated, black clear-bottom 384-well plates at 3000/well in 25 μL Dulbecco's Modified Eagle Medium (DMEM) supplemented with 10% w/w Fetal bovine serum (FBS), 0.2 units/mL recombinant human insulin (Gibco Cat #12585014), and 1% w/w Pen-Strep. Pen-Strep is a commercially available mixture of penicillin G and streptomycin, which is used in mammalian cell culture media to prevent bacterial contamination. Dulbecco's Modified Eagle Medium (DMEM) supplemented with 10% w/w fetal bovine serum (FBS), 0.2 units/mL recombinant human insulin, and 1% w/w Pen-Strep is herein referred to as Treatment Medium. Following seeding of cells in the plates, the plates were spun at 300×g for 30 seconds, then equilibrated to room temperature for 30 minutes, and then deposited in a humidified tissue culture incubator maintained at 37° C. with 5% CO2.
At 24 hours after seeding of the cells, dilutions of test compound were prepared in DMSO and dissolved in Treatment Medium, to achieve a final DMSO concentration of 0.5% w/w, thereby providing the Test Compound Solution. A 25 μL aliquot of the Test Compound Solution was added to cells in the well plates. An equal volume of a solution containing DMSO and Treatment Medium was used as a negative control. Following treatment of cells with Test Compound Solution or said equal volume of a solution containing DMSO and Treatment Medium, the plates were spun at 300×g for 30 seconds, and then left in an incubator for 72 hours.
At the end of the treatment duration, cell viability was quantified with CellTiter-Glo 2.0 reagent (Promega Cat #G9243). For this purpose, plates were equilibrated to room temperature for 30 minutes, and then 25 μL of CellTiter-Glo 2.0 reagent was added to cells in the plate wells. Plates were then agitated on a shaker for two minutes at 500 rpm and subsequently incubated at room temperature for 10 minutes. Following incubation, the plates were spun at 3000×g for 30 seconds, then sealed with an optical adhesive cover, and luminescence readings were measured with an EnVision Plate Reader (Perkin Elmer).
Data was normalized using zero luminescence for baseline. A four-parameter non-linear regression curve fit was applied to dose-response data in GraphPad Prism data analysis software to determine the half-maximal growth inhibitory concentration (GI50) for each test compound.

GI50 [nM] | SMILES
< 500 | Cc1sc2c(c1C)C(c1ccc([C@H]3C[C@@H]3CC3CCCN(c4ncc(C(=O)N[C@H]5C(C)(C)[C@H](Oc6ccc(C#N)c(Cl)c6)C5(C)C)cn4)C3)cc1)=NC(Cc1ncco1)c1nnc(C)n1-2 (stereo partly shown) [Compound I-496]
< 500 | Cc1sc2c(c1C)C(c1ccc(C#CC3CC(Cc4ncc(C(=O)N[C@H]5C(C)(C)[C@H](Oc6ccc(C#N)c(Cl)c6)C5(C)C)cn4)C3)cc1)=NC(Cc1ncco1)c1nnc(C)n1-2 (stereo partly shown) [Compound I-561]
> 3000 | Cc1sc2c(c1C)C(c1ccc(C3CC3C3CC4(CCN(c5cnc(C(=O)N[C@H]6C(C)(C)[C@H](Oc7ccc(C#N)c(Cl)c7)C6(C)C)cn5)CC4)C3)cc1)=NC(Cc1ncco1)c1nnc(C)n1-2 (stereo partly shown) [Compound I-539]
< 500 | Cc1sc2c(c1C)C(c1ccc(N3CC(C4CCCC(Cc5ncc(C(=O)N[C@H]6C(C)(C)[C@H](Oc7ccc(C#N)c(Cl)c7)C6(C)C)cn5)C4)C3)cc1)=N[C@@H](Cc1ncco1)c1nnc(C)n1-2 (stereo partly shown) [Compound I-580]
< 500 | Cc1sc2c(c1C)C(c1ccc(C3CC3C3CC4(CCN(c5cnc(C(=O)N[C@H]6C(C)(C)[C@H](Oc7ccc(C#N)c(Cl)c7)C6(C)C)cn5)CC4)C3)cc1)=NC(Cc1ncco1)c1nnc(C)n1-2 (stereo partly shown) [Compound I-540]
> 3000 | Cc1sc2c(c1C)C(c1ccc([C@H]3C[C@@H]3CC3CCCN(c4ncc(C(=O)N[C@H]5C(C)(C)[C@H](Oc6ccc(C#N)c(Cl)c6)C5(C)C)cn4)C3)cc1)=NC(Cc1ncco1)c1nnc(C)n1-2 (stereo partly shown) [Compound I-491]

same assay, conditions: Homo sapiens, T47D, 72 h, 72 hours treatment, CellTiter-Glo 2.0 cell viability

SMILES | GI50 [nM]
Cc1sc2c(c1C)C(c1ccc(N3CC(CC4CCN(c5cnc(C(=O)N[C@H]6C(C)(C)[C@H](Oc7ccc(C#N)c(Cl)c7)C6(C)C)cn5)CC4)C3)cc1)=NC1(CC1)c1nnc(C)n1-2 [Compound I-526] | > 3000
Cc1sc2c(c1C)C(c1ccc(N3CC4(C3)CN(c3ncc(C(=O)N[C@H]5C(C)(C)[C@H](Oc6ccc(C#N)c(Cl)c6)C5(C)C)cn3)C4)cc1)=N[C@@H](C)c1nnc(C)n1-2 [Compound I-516] | 1500 to 3000
Cc1sc2c(c1C)C(c1ccc(N3CC(C4CCN(c5cnc(C(=O)N[C@H]6C(C)(C)[C@H](Oc7ccc(C#N)c(Cl)c7)C6(C)C)cn5)CC4)C3)cc1)=NC1(CC1)c1nnc(C)n1-2 [Compound I-528] | > 3000
Cc1sc2c(c1C)C(c1ccc(OC3CC4(C3)CC3(CCN(c5ccc(C(=O)N[C@H]6C(C)(C)[C@H](Oc7ccc(C#N)c(Cl)c7)C6(C)C)nc5)CC3)C4)cc1)=N[C@@H](C)c1nnc(C)n1-2 [Compound I-549] | > 3000
Cc1sc2c(c1C)C(c1ccc(CC3CC(CC4CCN(c5ncc(C(=O)N[C@H]6C(C)(C)[C@H](Oc7ccc(C#N)c(Cl)c7)C6(C)C)cn5)CC4)C3)cc1)=N[C@@H](C)c1nnc(C)n1-2 (stereo partly shown) [Compound I-512] | < 500
Cc1sc2c(c1C)C(c1ccc(N3CC4(C3)CN(c3cnc(C(=O)N[C@H]5C(C)(C)[C@H](Oc6ccc(C#N)c(Cl)c6)C5(C)C)cn3)C4)cc1)=N[C@@H](C)c1nnc(C)n1-2 [Compound I-517] | 1500 to 3000
Cc1sc2c(c1C)C(c1ccc(ON3CC4(C3)CC3(CCN(c5cnc(C(=O)N[C@H]6C(C)(C)[C@H](Oc7ccc(C#N)c(Cl)c7)C6(C)C)cn5)CC3)C4)cc1)=N[C@@H](Cc1ncco1)c1nnc(C)n1-2 [Compound I-545] | 500 to 1500

Second part, the compound after the results:

GI50 [nM] | SMILES
< 500 | Cc1sc2c(c1C)C(c1ccc(N3CC(C4CCN(c5cnc(C(=O)N[C@H]6C(C)(C)[C@H](Oc7ccc(C#N)c(Cl)c7)C6(C)C)cn5)CC4)C3)cc1)=N[C@@H](Cc1ncco1)c1nnc(C)n1-2 [Compound I-558]
< 500 | Cc1sc2c(c1C)C(c1ccc(N3CC(CC4CCN(c5cnc(C(=O)N[C@H]6C(C)(C)[C@H](Oc7ccc(C#N)c(Cl)c7)C6(C)C)cn5)CC4)C3)cc1)=N[C@@H](Cc1ncco1)c1nnc(C)n1-2 [Compound I-575]
500 to 1500 | Cc1sc2c(c1C)C(c1ccc(C#CC3CC(Cc4ncc(C(=O)N[C@H]5C(C)(C)[C@H](Oc6ccc(C#N)c(Cl)c6)C5(C)C)cn4)C3)cc1)=NC(Cc1ncco1)c1nnc(C)n1-2 (stereo partly shown) [Compound I-560]
